For the experiment, the target named is T1, Cbl-b (Homo sapiens, UniProt Q13191).
T1 construct: Cbl-b-HiBit KI Jurkat Cells were purchased from Promega; host or cells: Cbl-b-HiBiT knock-in Jurkat cells
The experiment in a line: Cbl-b Degradation Method B (Nano-Glo HiBiT lytic detection). Format: cell-based. As to conditions: Cbl-b-HiBit KI Jurkat Cells, incubated at least 6-24 hours; for DC50: half maximal degradation, read-out: Cbl-b Degredation Method B IC50; for Dmax: maximum degradation observed, read-out: Cbl-b Degredation Method B Dmax (%). The method, then: Cbl-b Degradation Method B [table] Cbl-b-HiBit KI Jurkat Cells were purchased from Promega, and cell media consisted of RPMI 1640 with 10% […] and 1% pen/strep. The cells were counted, measured for viability, and 35 μL of the cell solution was seeded into 384 well flat bottom plates at a ratio of 20,000 cells per 35 μL. After which, the plates were incubated for ˜24 hours at 37° C. and 5% CO2. Compounds were ordered from Evotec in a 384 well plate at a 1 mM top concentration in DMSO and serially diluted 1:3 in DMSO for an 11-point dose response. Using the Bravo instrument, 1 uL of compound solution or DMSO was transferred to 125 uL of media. Each well was treated with 5 μL of compound plus media mixture or DMO and subsequently incubated for at least 6-24 hours at 37° C. and 5% CO2. After incubation, 30 μL of either NanoGlo media was added to each cell, and the plates read on the Synergy Neo2 machine. The concentration of an exemplary compound that leads to half maximal degradation (DC50) as well as the maximum degradation observed (Dmax, conventionally expressed as a percentage of control) is shown below in Table 2.
In general terms: The HiBiT peptide binds its large partner to form an active luciferase.

Usually Dmax stands for the greatest extent of degradation seen.

T1 sequence (Q13191 whole entry): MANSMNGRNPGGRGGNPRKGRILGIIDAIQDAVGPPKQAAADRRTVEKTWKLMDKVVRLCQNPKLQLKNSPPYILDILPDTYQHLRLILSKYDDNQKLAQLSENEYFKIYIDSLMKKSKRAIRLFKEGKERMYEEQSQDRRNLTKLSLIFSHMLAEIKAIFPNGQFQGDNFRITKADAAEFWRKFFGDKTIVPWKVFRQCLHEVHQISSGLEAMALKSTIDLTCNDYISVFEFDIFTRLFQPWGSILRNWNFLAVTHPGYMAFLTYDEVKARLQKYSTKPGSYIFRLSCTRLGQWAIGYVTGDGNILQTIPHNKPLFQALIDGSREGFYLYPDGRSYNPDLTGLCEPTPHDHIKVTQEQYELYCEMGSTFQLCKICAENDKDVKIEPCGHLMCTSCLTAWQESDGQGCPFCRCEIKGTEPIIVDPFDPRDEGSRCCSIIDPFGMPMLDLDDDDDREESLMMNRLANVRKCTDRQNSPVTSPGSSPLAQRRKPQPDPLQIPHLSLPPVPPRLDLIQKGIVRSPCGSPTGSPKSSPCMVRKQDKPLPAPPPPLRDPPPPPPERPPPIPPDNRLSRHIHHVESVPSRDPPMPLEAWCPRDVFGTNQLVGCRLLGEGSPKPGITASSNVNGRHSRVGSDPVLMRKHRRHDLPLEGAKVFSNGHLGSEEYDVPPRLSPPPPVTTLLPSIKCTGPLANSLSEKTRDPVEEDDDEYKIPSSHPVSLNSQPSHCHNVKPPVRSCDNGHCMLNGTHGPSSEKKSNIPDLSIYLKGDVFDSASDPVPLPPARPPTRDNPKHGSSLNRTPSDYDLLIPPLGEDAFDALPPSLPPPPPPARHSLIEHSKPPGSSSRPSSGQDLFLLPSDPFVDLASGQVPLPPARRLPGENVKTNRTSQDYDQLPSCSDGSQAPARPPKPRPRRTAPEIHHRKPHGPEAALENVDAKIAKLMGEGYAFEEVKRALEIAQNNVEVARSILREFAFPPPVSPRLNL

For `CC1c2c(cc(CN3CCN(C[C@H]4CC[C@H](OC5CCN(c6ccc7c(c6F)CN(C6CCC(=O)NC6=O)C7=O)CC5)CC4)CC3(C)C)cc2C(F)(F)F)C(=O)N1c1cccc(C2(Cc3nncn3C)COC2)c1` (stereo partly drawn) [Example 279, 3-[4-fluoro-1-oxo-5-(4-{[(1r, 4r)-4-[(3,3-dimethyl-4-{[1-methyl-2-(3-{3-[(4-methyl-4H-1,2,4-triazol-3-yl)methyl]oxetan-3-yl}phenyl)-3-oxo-7-(trifluoromethyl)-2,3-dihydro-1H-isoindol-5-yl]methyl}piperazin-1-yl)methyl]cyclohexyl]oxy}piperidin-1-yl)-2,3-dihydro-1H-isoindol-2-yl]piperidine-2,6-dione], the DC50 is over 500 nM.

On to `CC1c2nc(N3CCC(O[C@H]4CC[C@H](CN5C[C@H]6C[C@@H]5CN6Cc5cc6c(c(C(F)(F)F)c5)CN(c5cccc(C7(Cc8nncn8C)CCC7)c5)C6=O)CC4)CC3)ccc2C(=O)N1C1CCC(=O)NC1=O` (stereo partly drawn) [Example 225, 3-[7-methyl-5-oxo-2-(4-{[(1r,4r)-4-{[(1R,4R)-5-{[2-(3-{1-[(4-methyl-4H-1,2,4-triazol-3-yl)methyl]cyclobutyl}phenyl)-3-oxo-7-(trifluoromethyl)-2,3-dihydro-1H-isoindol-5-yl]methyl}-2,5-diazabicyclo[2.2.1]heptan-2-yl]methyl}cyclohexyl]oxy}piperidin-1-yl)-5H,6H,7H-pyrrolo[3,4-b]pyridin-6-yl]piperidine-2,6-dione], for which the DC50 is under 5 nM and the Dmax lay in the range of 35 to 70%. For `Cn1cnnc1CC1(c2cccc(-n3cc4c(C(F)(F)F)cc(CN5CCC[C@H](CN6CCC(OC7CCN(c8ccc9c(c8F)CN(C8CCC(=O)NC8=O)C9=O)CC7)CC6)C5)cc4n3)c2)COC1` (stereo partly drawn) [Example 259, 3-(4-fluoro-5-{4-[(1-{[(3R)-1-{[2-(3-{3-[(4-methyl-4H-1,2,4-triazol-3-yl)methyl]oxetan-3-yl}phenyl)-4-(trifluoromethyl)-2H-indazol-6-yl]methyl}piperidin-3-yl]methyl}piperidin-4-yl)oxy]piperidin-1-yl}-1-oxo-2,3-dihydro-1H-isoindol-2-yl)piperidine-2,6-dione], the DC50 is over 500 nM. Take `Cc1cc(N2CCC(O[C@H]3CC[C@H](CN4CCN(Cc5cc6c(c(C(F)(F)F)c5)CN(c5cccc(C7(Cc8nncn8C)CC(C#N)C7)c5)C6=O)C(C)(C)C4)CC3)CC2)c(F)c2c1C(=O)N(C1CCC(=O)NC1=O)C2` (stereo partly drawn) [Example 251, (1r**,3r**)-3-(3-{6-[(2,2-dimethyl-4-{[(1r*,4r*)-4-({1-[2-(2,6-dioxopiperidin-3-yl)-4-fluoro-7-methyl-1-oxo-2,3-dihydro-1H-isoindol-5-yl]piperidin-4-yl}oxy)cyclohexyl]methyl}piperazin-1-yl)methyl]-1-oxo-4-(trifluoromethyl)-2,3-dihydro-1H-isoindol-2-yl}phenyl)-3-[(4-methyl-4H-1,2,4-triazol-3-yl)methyl]cyclobutane-1-carbonitrile]: the DC50 was 5 to 50 nM and the Dmax is over 70%. For `Cn1cnnc1CC1(c2cccc(N3Cc4c(cc(CN5CCN(C[C@H]6CC[C@H](OC7CCN(c8ccc9c(c8Cl)CN(C8CCC(=O)NC8=O)C9=O)CC7)CC6)CC5)cc4C(F)(F)F)C3=O)c2)COC1` (stereo partly drawn) [Example 24, 3-[4-chloro-1-oxo-5-(4-{[(1r,4r)-4-[(4-{[2-(3-{3-[(4-methyl-4H-1,2,4-triazol-3-yl)methyl]oxetan-3-yl}phenyl)-3-oxo-7-(trifluoromethyl)-2,3-dihydro-1H-isoindol-5-yl]methyl}piperazin-1-yl)methyl]cyclohexyl]oxy}piperidin-1-yl)-2,3-dihydro-1H-isoindol-2-yl]piperidine-2,6-dione] the same measures were under 5 nM and over 70%. The like results for `C[C@@H]1CN(CC2CCC(OC3CCN(c4ccc5c(n4)[C@@H](C)N(C4CCC(=O)NC4=O)C5=O)CC3)CC2)CCN1Cc1cc2c(c(C(F)(F)F)c1)CN(c1cccc([C@]3(Cc4nncn4C)C[C@H](C#N)C3)c1)C2=O` (single isomer, unassigned) [Example 239, (1rs&,3rs&)-3-[3-(6-{[(2R)-2-methyl-4-{[(1rs,4rs)-4-({1-[(7R*)-6-(2,6-dioxopiperidin-3-yl)-7-methyl-5-oxo-5H,6H,7H-pyrrolo[3,4-b]pyridin-2-yl]piperidin-4-yl}oxy)cyclohexyl]methyl}piperazin-1-yl]methyl}-1-oxo-4-(trifluoromethyl)-2,3-dihydro-1H-isoindol-2-yl)phenyl]-3-[(4-methyl-4H-1,2,4-triazol-3-yl)methyl]cyclobutane-1-carbonitrile] were, in that order, under 5 nM and over 70%. Take `Cn1cnnc1CC1(c2cccc(N3Cc4c(cc(CN5CCC5CC5CCN(c6ccc7c(c6)C(=O)N(C6CCC(=O)NC6=O)C7=O)CC5)cc4C(F)(F)F)C3=O)c2)COC1` (stereo not drawn) [Example 70, 2-(2,6-dioxopiperidin-3-yl)-5-{4-[(1-{[2-(3-{3-[(4-methyl-4H-1,2,4-triazol-3-yl)methyl]oxetan-3-yl}phenyl)-3-oxo-7-(trifluoromethyl)-2,3-dihydro-1H-isoindol-5-yl]methyl}azetidin-2-yl)methyl]piperidin-1-yl}-2,3-dihydro-1H-isoindole-1,3-dione]: the DC50 is over 500 nM.

As for `Cn1cnnc1C[C@]1(c2cccc(N3Cc4c(cc(N5CC6(CCN(C(=O)C7CCN(c8ccc9c(c8)C(=O)N(C8CCC(=O)NC8=O)C9=O)CC7)CC6)C5)cc4C(F)(F)F)C3=O)c2)C[C@H](C#N)C1` (stereo partly drawn) [Example 146, 3-[3-[6-[7-[1-[2-(2,6-dioxo-3-piperidyl)-1,3-dioxo-isoindolin-5-yl]piperidine-4-carbonyl]-2,7-diazaspiro[3.5]nonan-2-yl]-1-oxo-4-(trifluoromethyl)isoindolin-2-yl]phenyl]-3-[(4-methyl-1,2,4-triazol-3-yl)methyl]cyclobutanecarbonitrile], the DC50 was 5 to 50 nM and the Dmax is under 35%. With `Cn1cnnc1CC1(c2cccc(N3Cc4c(cc(CN5CC(CN6CCN(C7CCN(c8ccc9c(c8)C(=O)N(C8CCC(=O)NC8=O)C9=O)CC7)CC6)C5)cc4C(F)(F)F)C3=O)c2)COC1` (stereo not drawn) [Example 67, 2-(2,6-dioxopiperidin-3-yl)-5-(4-{4-[(1-{[2-(3-{3-[(4-methyl-4H-1,2,4-triazol-3-yl)methyl]oxetan-3-yl}phenyl)-3-oxo-7-(trifluoromethyl)-2,3-dihydro-1H-isoindol-5-yl]methyl}azetidin-3-yl)methyl]piperazin-1-yl}piperidin-1-yl)-2,3-dihydro-1H-isoindole-1,3-dione], the DC50 is over 500 nM. With `CC(C)n1c(=O)n(C2CCC(=O)NC2=O)c2ccc(N3CCC(O[C@H]4CC[C@@H](CN5CCN(C[C@H]6CCCN(Cc7cc(C(F)(F)F)c8cn(-c9cccc(C%10(Cc%11nncn%11C)COC%10)c9)nc8c7)C6)CC5)CC4)CC3)cc21` (stereo partly drawn) [Example 268, 3-[2-oxo-3-(propan-2-yl)-5-(4-{[(1r,4r)-4-[(4-{[(3S)-1-{[2-(3-{3-[(4-methyl-4H-1,2,4-triazol-3-yl)methyl]oxetan-3-yl}phenyl)-4-(trifluoromethyl)-2H-indazol-6-yl]methyl}piperidin-3-yl]methyl}piperazin-1-yl)methyl]cyclohexyl]oxy}piperidin-1-yl)-2,3-dihydro-1H-1,3-benzodiazol-1-yl]piperidine-2,6-dione], the DC50 was under 5 nM and the Dmax is over 70%. For the compound `C[C@@H]1c2nc(N3CCC(O[C@H]4CC[C@H](CN5CCN(Cc6cc7c(c(C(F)(F)F)c6)CN(c6cccc(C8(Cc9nncn9C)CC(C#N)C8)c6)C7=O)C(C)(C)C5)CC4)CC3)ccc2C(=O)N1C1CCC(=O)NC1=O` (single isomer, unassigned) [Example 308, (1r***,3r***)-3-(3-{6-[(2,2-dimethyl-4-{[(1r**,4r**)-4-({1-[(7R*)-6-(2,6-dioxopiperidin-3-yl)-7-methyl-5-oxo-5H,6H,7H-pyrrolo[3,4-b]pyridin-2-yl]piperidin-4-yl}oxy)cyclohexyl]methyl}piperazin-1-yl)methyl]-1-oxo-4-(trifluoromethyl)-2,3-dihydro-1H-isoindol-2-yl}phenyl)-3-[(4-methyl-4H-1,2,4-triazol-3-yl)methyl]cyclobutane-1-carbonitrile], the DC50 was over 500 nM. Same read-out and setting: the result for `Cn1cnnc1CC1(c2cccc(-n3cc4c(C(F)(F)F)cc(CN5CCC[C@@H](CN6CCC(CN7CCN(c8ccc9c(c8F)CN(C8CCC(=O)NC8=O)C9=O)CC7)CC6)C5)cc4n3)c2)COC1` (stereo partly drawn) [Example 298, 3-(4-fluoro-5-{4-[(1-{[(3S)-1-{[2-(3-{3-[(4-methyl-4H-1,2,4-triazol-3-yl)methyl]oxetan-3-yl}phenyl)-4-(trifluoromethyl)-2H-indazol-6-yl]methyl}piperidin-3-yl]methyl}piperidin-4-yl)methyl]piperazin-1-yl}-1-oxo-2,3-dihydro-1H-isoindol-2-yl)piperidine-2,6-dione] reads over 500 nM.

The values above are taken from patent US20260184710A1, “CASITAS B-LINEAGE LYMPHOMA PROTOONCOGENE B (CBL-B) DEGRADING COMPOUNDS AND ASSOCIATED METHODS OF USE” (Arvinas Operations, Inc., priority 2022, published 2026).
